# In patent US6444862B1, “Synthesis and isolation of metal alkoxides” (Mine Safety Appliances Company, priority 2000, dated 2002):
# Experiment: Solubility of metal alkoxide in solvent
# Assay type: physicochemical
# Details: solution in heptane
# From the text: To provide a safer material, metal alkoxides are often dissolved in a solvent. In general, liquids are, for example, easier to transfer from drums or cylinders into reactors (reducing the exposure of human handlers to dangerous materials), more easily kept under an inert atmosphere, and provide more options for modes of addition to the substrate. […] The low solubilities of many alkoxides have been attributed to the ionic character and the extent of oligomerization or polymerization in solution. Another factor affecting solubility in an alcohol solvent is the propensity of alkoxides to form insoluble alcoholate complexes with the alcohol. Metal alkoxides are somewhat more soluble in polar ethereal solvents such as tetrahydrofuran and the polyethers (glymes). However, even in ethers, the solubility is generally less than 50%, especially at or below room temperature (that is, at or below 25° C.). Moreover, the range of polar solvents is somewhat limited as a result of the reactivity of the alkoxide. Furthermore, in some cases the solvent of choice for the desired reaction involving a metal alkoxide is not compatible with the alkoxide or the metal alkoxide is insoluble therein.
# In one set of studies, potassium 3,7-dimethyl-3-octanoxide (KDMO), was prepared by the reaction of potassium metal with 3,7-dimethyl-3-octanol in heptane in a pressure reaction vessel. […]
smiles,measurement,value
"CCC(C)([O-])CCCC(C)C.[K+] (stereo not shown) [Example 1, Potassium 3,7-Dimethyl-3-octanoxide]",concentration of alkoxide solution prepared,70-75 wt %
